Tests used:
T84 cells = experiment: Intracellular calcium mobilization (Fluo-3 AM, FLIPR) in T84 cells; format: cell-based; details: T84 human colonic epithelial cell line; FIG. 5
From the text: In addition, the pharmaceutical utility of P2Y agonist compounds of this invention are indicated by the intracellular calcium mobilization assay for P2Y activity. In this assay, cultured cells are stimulated with the increasing concentrations of P2Y receptor agonists. Intracellular calcium levels are monitored by measuring the changes in fluorescence intensity of a calcium-sensitive dye using the FLIPR (Molecular Devices Corp., Sunnyvale, Calif.) or equivalent instrumentation. A conventional technique is used to detect intracellular calcium mobilization induced by P2Y receptor agonists. The technique is familiar to those well versed in the art. Cells are seeded in 96-well plates and used for calcium mobilization assays. On the day of the assay, the growth medium is aspirated and replaced with a solution of Fluo-3 AM (2.5 μM final concentration) in an assay buffer consisting of (mM): KCI (10.0), NaCl (118), CaCl2(2.5), MgCl2 (1.0), HEPES (20), glucose (10), pH 7.4. Probenecid (Sigma Chemical Co.) is added to the dye load and dye wash medium at a working concentration of 2.5mM to increase dye retention in the cells. After a 60 minute incubation with Fluo-3 AM at 25° C., cells are washed free of dye (Columbus Plate Washer, TECAN U.S., Inc., Research Triangle Park, N.C.) and are stimulated with increasing concentrations of P2Y receptor agonists. Intracellular calcium levels are simultaneously monitored in each well by measuring the changes in fluorescence intensity using the FLIPR (Molecular Devices Corp., Sunnyvale, Calif.). T84 cells, a human colonic epithelial cell line, were subjected to the calcium mobilization assay described above. […] The activation of intracellular calcium mobilization by ATP and UTP in T84 and HT-29 cells indicate the pharmaceutical utility of P2Y receptor agonists in the gastrointestinal tract.

HT-29 cells [1] = experiment: Intracellular calcium mobilization (Fluo-3 AM, FLIPR) in HT-29 cells; format: cell-based; details: human colonic HT-29 cells; FIG. 6
From the text: In addition, the pharmaceutical utility of P2Y agonist compounds of this invention are indicated by the intracellular calcium mobilization assay for P2Y activity. In this assay, cultured cells are stimulated with the increasing concentrations of P2Y receptor agonists. Intracellular calcium levels are monitored by measuring the changes in fluorescence intensity of a calcium-sensitive dye using the FLIPR (Molecular Devices Corp., Sunnyvale, Calif.) or equivalent instrumentation. A conventional technique is used to detect intracellular calcium mobilization induced by P2Y receptor agonists. The technique is familiar to those well versed in the art. Cells are seeded in 96-well plates and used for calcium mobilization assays. On the day of the assay, the growth medium is aspirated and replaced with a solution of Fluo-3 AM (2.5 μM final concentration) in an assay buffer consisting of (mM): KCI (10.0), NaCl (118), CaCl2(2.5), MgCl2 (1.0), HEPES (20), glucose (10), pH 7.4. Probenecid (Sigma Chemical Co.) is added to the dye load and dye wash medium at a working concentration of 2.5mM to increase dye retention in the cells. […] Intracellular calcium levels are simultaneously monitored in each well by measuring the changes in fluorescence intensity using the FLIPR (Molecular Devices Corp., Sunnyvale, Calif.). […]

HT-29 cells [2] = details: Otero et al. Mol Cell Biochem 2000; cited from earlier work
Goblet cells = Goblet cells in vitro; Lethem et al. 1993; cited from earlier work

Structure (SMILES)	calcium mobilization (T84 cells)	calcium mobilization (P2Y response) (HT-29 cells [1])	calcium mobilization (HT-29 cells [2])	rate and total amount of mucin secretion (Goblet cells)
CSc1nc(N)c2ncn([C@@H]3O[C@H](COP(=O)(O)OP(=O)(O)O)[C@@H](O)[C@H]3O)c2n1 [2-methylthioADP]	did not simulate calcium mobilization	–	–	–
Nc1ncnc2c1ncn2[C@@H]1O[C@H](COP(=O)(O)OP(=O)(O)OP(=O)(O)O)[C@@H](O)[C@H]1O [ATP, 5′-adenosine triphosphate]	stimulate calcium mobilization	robust P2Y response	–	–
O=c1ccn([C@@H]2O[C@H](COP(=O)(O)OP(=O)(O)OP(=O)(O)O)[C@@H](O)[C@H]2O)c(=O)[nH]1 [UTP, uridine 5′-triphosphate]	stimulate calcium mobilization	robust P2Y response	stimulated calcium mobilization	increase both the rate and total amount of mucin secretion

From patent publication US6624150B2, “Method of treating gastrointestinal tract disease with purinergic receptor agonists” (Inspire Pharmaceuticals, Inc., priority 1999, dated 2003)
